Test results from patent US10815275B2, “Antimicrobial peptoids with improved selectivity and use thereof” (priority 2018, dated 2020).
Values after ≈ are worked out from the molar mass of the structure shown. Non-standard residues stand in square brackets, D forms with d. Residues, ends and D or L forms follow the SMILES beside them. Nspe = C[C@H](NCC(=O)O)c1ccccc1; Nlys = NCCCCNCC(=O)O

Key:
Assay type in all cases: cell-based
[1] = system: E. coli (63103 ESBL); experiment: MIC in multidrug-resistant bacteria panel, modified microdilution; details: overnight, 37° C.
Protocol: (§1) Minimum inhibitory concentrations of the prepared peptoids for multidrug-resistant bacteria were measured using a modified microdilution method in Difco Mueller Hinton medium, and tests were done on a panel of bacterial pathogens which have resistance and tolerance against common antibiotics.
(§2) Briefly, a peptoid concentrate, which is 10-fold more concentrated than a final concentration, was serially diluted with a medium containing 0.2% bovine serum albumin and 0.01% acetic acid. 10 μL of the 10-fold concentrated peptoid concentrate and 90 μL of Muller Hinton medium were added to each well of a 96-well polypropylene microtitre plate. Bacteria were added to the plate so that a final concentration thereof was 2×10^5 CFU/mL, and then incubated overnight at a temperature of 37° C. The minimum inhibitory concentration was defined as a concentration at which no bacterial growth is observed.

[2] = system: S. aureus (ATCC25923); experiment: as above; details: overnight, 37° C.
Protocol: as §1, §2

[3] = system: S. epidermidis (ET-024 MRSA); experiment: as above; details: overnight, 37° C.
Protocol: as §1, §2

[4] = system: B. subtilis; details: LB medium, 18 h
In short: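 B. subtilis or E. coli DH5α grown 18 h at 37 °C in LB, diluted to 2×10^5 CFU/mL and exposed to 2-fold serial peptoid dilutions for 18 h at 37 °C. Growth read by A600; MIC taken as lowest concentration fully suppressing growth, averaged over three independent experiments.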

In the case of `C[C@@H](c1ccccc1)N(CC(N)=O)C(=O)CN(C(=O)CN(CCCCN)C(=O)CN(C(=O)CN(C(=O)CN(CCCCN)C(=O)CN(C(=O)CN(C(=O)CN(CCCCN)C(=O)CN(C(=O)CN(C(=O)CNCCCCN)[C@@H](C)c1ccccc1)[C@@H](C)c1ccccc1)[C@@H](C)c1ccccc1)[C@@H](C)c1ccccc1)[C@@H](C)c1ccccc1)[C@@H](C)c1ccccc1)[C@@H](C)c1ccccc1` [compound 1] (H-[Nlys][Nspe][Nspe][Nlys][Nspe][Nspe][Nlys][Nspe][Nspe][Nlys][Nspe][Nspe]-NH2), the “minimum inhibitory concentration E. coli (63103 ESBL)” value [1] is reported as 1.6, the “minimum inhibitory concentration S. aureus (ATCC25923)” value [2] is reported as 1.6 and the “minimum inhibitory concentration S. epidermidis (ET-024 MRSA)” value [3] is reported as less than 0.8 to 0.8. For the same molecule, the “MIC B. subtilis” value [4] was 0.8 µM (≈ 1.46 µg/mL).
